Reference: US12594282B2, “Use of small molecule compounds in the treatment of diseases mediated by lung epithelial cell injury and/or vascular endothelial cell injury” (Guangzhou Cellprotek Pharmaceutical Co., Ltd., priority 2020, dated 2026)

Columns and labels:
NR4A3 [1] = test: NR4A3 protein expression under OGD-R, HUVEC (Western blot, immunofluorescence); format: cell-based, human; conditions: OGD 4 hours, restoration 24 hours, 1, 3, 10 μM given at restoration
Procedure: (§1) HUVEC cells were cultured in modified DMEM medium containing 10% fetal bovine serum. When the cells reached about 80% confluence, the cells were digested with 0.25% trypsin, and then pipetted evenly with modified DMEM containing 10% […]. The cell concentration was adjusted to 1×10^5 cells/mL, and the cells were seeded at 400 uL/well in a 24-well plate, and the experiment was carried out when the cells grew to about 70% confluence. RAOEC cells were cultured in high-glucose DMEM medium containing 10% fetal bovine serum, and the seeding conditions were the same as those of HUVEC. During the OGD-R injury treatment, the hypoxia workstation was set to have an oxygen concentration of 1% (1% O2, 5% CO2, 94% N2), a temperature of 37° C., and a humidity of 85%. A sugar-free DMEM medium was placed in the hypoxia workstation for pre-hypoxia for 3 hours. The medium in the culture plate was aspirated, and the plate was washed twice with preheated sugar-free DMEM medium, and 100 uL of sugar-free DMEM medium was added to each well. The culture plate was placed in the hypoxia workstation, and 300 uL of pre-hypoxic sugar-free DMEM medium was added to each well, and then the culture plate was placed in the hypoxia workstation for additional hypoxia for 4 hours. Restoration was then performed. The culture plate was taken out, and the sugar-free DMEM medium was replaced with 400 uL of normal medium containing 10% fetal bovine serum, and then the plate was placed in a 37° C. 5% CO2 cell incubator for culturing for 24 hours or a specified time period. For the cells in the normal group, it was only replaced with 400 uL of new normal medium containing 10% fetal bovine serum. […]
(§2) The cells were washed twice with pre-cooled PBS, then scraped off with a cell scraper and transferred to a 1.5 mL centrifuge tube, and centrifugation was performed at 4° C. and 1000 g for 5 minutes. […] Each protein sample was then quantified using the BCA protein quantification kit. After protein quantification, protein lysis buffer was used to adjust the protein concentration of each sample to be consistent with the protein sample with the lowest concentration, and then each protein sample was sufficiently mixed with 5× protein loading buffer at a ratio of 4:1. […]

NR4A3 [2] = test: NR4A3 protein expression under OGD-R, RAOEC (Western blot, immunofluorescence); format: cell-based, rat; conditions: OGD 4 hours, restoration 24 hours, 1, 3, 10 μM given at restoration
Procedure: as §1, §2

C[C@@]12CCCC1C1C[C@@H](O)[C@]3(O)C[C@@H](O)CC[C@]3(C)C1CC2 (stereo partly drawn) [YC-6, 5α-androst-3β,5,6β-triol]
NR4A3 protein expression (NR4A3 [1]): dose-dependently increase the protein expression of NR4A3 | NR4A3 protein expression (NR4A3 [2]): dose-dependently increase the protein expression of NR4A3
